US20210040118A1, “IMMUNOMODULATORS, COMPOSITIONS AND METHODS THEREOF” (BETTA PHARMACEUTICALS CO., LTD, priority 2018, published 2021)

Each compound was assayed against T1, PD-1/PD-L1 (Homo sapiens, UniProt Q9NZQ7) (assay: PD-1/PD-L1 homogenous time-resolved fluorescence (HTRF) binding assay). Settings: recombinant human PD-L1 (19-238) His-tag / human PD-1 (25-167) Fc tag, class symbols.
T1 construct: Recombinant human PD-L1 protein (19-238) with a His-tag at the C-terminus; purchased AcroBiosystems PD1-H5229 (PD-L1); PD1-H5257 (PD-1)
T1 sequence (Q9NZQ7 19-238): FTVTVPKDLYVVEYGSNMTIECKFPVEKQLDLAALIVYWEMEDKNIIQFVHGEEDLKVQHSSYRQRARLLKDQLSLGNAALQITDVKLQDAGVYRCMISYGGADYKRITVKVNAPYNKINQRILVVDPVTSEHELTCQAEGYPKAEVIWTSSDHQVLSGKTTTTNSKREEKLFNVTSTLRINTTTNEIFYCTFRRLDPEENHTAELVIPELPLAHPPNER
In short: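 HTRF binding of human PD-1 (25-167, Fc-tagged) at 3 nM and PD-L1 (19-238, His-tagged) at 10 nM, preincubated 40 min with inhibitor in PBS pH 7.4, 0.05% Tween-20, 0.1% BSA, 1% DMSO, 25°C. Eu anti-IgG (1 nM) and anti-His-APC (20 nM) added, 60 min; 665/620 nm ratio; IC50 from curve fit.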
For `Cc1c(Nc2nccc3cc(CNCCO)cnc23)cccc1-c1cccc(Nc2nccc3cc(CNCC(F)(F)F)cnc23)c1C` [Example 156, 2-(((8-((2,2′-dimethyl-3′-((3-(((2,2,2-trifluoroethyl)amino)methyl)-1,7-naphthyridin-8-yl)amino)-[1,1′-biphenyl]-3-yl)amino)-1,7-naphthyridin-3-yl)methyl)amino)ethan-1-ol], the IC50 was less than 25 nM.
`Cc1c(NC(=O)c2nc3c(s2)CN(C(C)C)CC3)cccc1-c1cccc(NC(=O)c2nc3c(s2)CN(C(C)C)CC3)c1C` [Example 77, N,N′-(2,2′-dimethyl-[1,1′-biphenyl]-3,3′-diyl)bis(5-isopropyl-4,5,6,7-tetrahydrothiazolo[5,4-c]pyridine-2-carboxamide)] was tested, and the IC50 was 25 to 100 nM.
Work on `Cc1c(NC(=O)c2nc3c(s2)CN(CCCN2CCOCC2)CC3)cccc1-c1cccc(NC(=O)c2nc3c(s2)CN(CCCN2CCOCC2)CC3)c1C` [Example 81, N,N′-(2,2′-dimethyl-[1,1′-biphenyl]-3,3′-diyl)bis(5-(3-morpholinopropyl)-4,5,6,7-tetrahydrothiazolo[5,4-c]pyridine-2-carboxamide)] yielded an IC50 of less than 25 nM.
With `NC(=O)CN1CCc2nc(C(=O)Nc3cccc(-c4cccc(NC(=O)c5nc6c(s5)CN(CC(N)=O)CC6)c4Cl)c3Cl)sc2C1` [Example 90, N,N′-(2,2′-dichloro-[1,1′-biphenyl]-3,3′-diyl)bis(5-(2-amino-2-oxoethyl)-4,5,6,7-tetrahydrothiazolo[5,4-c]pyridine-2-carboxamide)] the IC50 was less than 25 nM.
`COP(=O)(CN1CCc2nc(C(=O)N3CCc4c(-c5cccc6c5CCN6C(=O)c5nc6c(s5)CN(CP(=O)(OC)OC)CC6)cccc43)sc2C1)OC` [Example 123, dimethyl ((2-(1′-(5-((dimethoxyphosphoryl)methyl)-4,5,6,7-tetrahydrothiazolo[5,4-c]pyridine-2-carbonyl)-[4,4′-biindoline]-1-carbonyl)-6,7-dihydrothiazolo[5,4-c]pyridin-5(4H)-yl)methyl)phosphonate] showed an IC50 of less than 25 nM.
For `Cc1nc(C(=O)Nc2cccc(-c3cccc(NC(=O)c4nc(C)c(CN5CCCC[C@H]5C(=O)O)s4)c3C)c2C)sc1CN1CCCC[C@H]1C(=O)O` [Example 52, (2S,2'S)-1,1′-(2,2′-(2,2′-dimethylbiphenyl-3,3′-diyl)bis(azanediyl)bis(oxomethylene)bis(4-methylthiazole-5,2-diyl))bis(methylene)dipiperidine-2-carboxylic acid], the IC50 was less than 25 nM.
In the case of `NCc1nc(C(=O)N2CCc3c(-c4cccc5c4CCN5C(=O)c4n[nH]c(CN)n4)cccc32)n[nH]1` [Example 137, (5-((12-azanyl)methyl)-1H-1,2,4-triazol-3-yl)(1′-(5-(aminomethyl)-1H-1,2,4-triazole-3-carbonyl)-[4,4′-biindolin]-1-yl)methanone], the IC50 is reported as 100 to 200 nM.
`Cc1c(NC(=O)c2nnc(CNCCO)s2)cccc1-c1cccc(NC(=O)c2nnc(CNCCO)s2)c1C` [Example 73, N,N′-(2,2′-dimethyl-[1,1′-biphenyl]-3,3′-diyl)bis(5-(((2-hydroxyethyl)amino)methyl)-1,3,4-thiadiazole-2-carboxamide)] showed an IC50 of less than 25 nM.
`O=C(Nc1cccc(-c2cccc(NC(=O)c3nc4c(s3)CN(C3COC3)CC4)c2Cl)c1Cl)c1nc2c(s1)CN(C1COC1)CC2` [Example 92, N,N′-(2,2′-dichloro-[1,1′-biphenyl]-3,3′-diyl)bis(5-(oxetan-3-yl)-4,5,6,7-tetrahydrothiazolo[5,4-c]pyridine-2-carboxamide)] was tested, and the IC50 was less than 25 nM.
For `Cc1c(Nc2nccc3cc(CN4CCOCC4)cnc23)cccc1-c1cccc(Nc2nccc3cc(CN4CCOCC4)cnc23)c1C` [Example 151, 2,2′-dimethyl-N3,N3′-bis(3-(morpholinomethyl)-1,7-naphthyridin-8-yl)-[1,1′-biphenyl]-3,3′-diamine], the IC50 was less than 25 nM.
In the case of `Cc1c(NC(=O)c2nnc(C(C)N)o2)cccc1-c1cccc(NC(=O)c2nnc(C(C)N)o2)c1C` (stereo not shown) [Example 19, N,N′-(2,2′-dimethyl-[1,1′-biphenyl]-3,3′-diyl)bis(5-(1-aminoethyl)-1,3,4-oxadiazole-2-carboxamide)], the IC50 is reported as 25 to 100 nM.
Compound `CC(=O)NCCNCc1cnc2c(Nc3cccc(-c4cccc(Nc5nccc6cc(CNCCNC(C)=O)cnc56)c4C)c3C)nccc2c1` [Example 152, N,N′-((((((2,2′-dimethyl-[1,1′-biphenyl]-3,3′-diyl)bis(azanediyl))bis(1,7-naphthyridine-8,3-diyl))bis(methylene))bis(azanediyl))bis(ethane-2,1-diyl))diacetamide] has an IC50 of less than 25 nM.
`Cc1c(NC(=O)c2nc3c(s2)CN(CC(C)(C)CO)CC3)cccc1-c1cccc(NC(=O)c2nc3c(s2)CN(CC(C)(C)CO)CC3)c1C` [Example 76, N,N′-(2,2′-dimethyl-[1,1′-biphenyl]-3,3′-diyl)bis(5-(3-hydroxy-2,2-dimethylpropyl)-4,5,6,7-tetrahydrothiazolo[5,4-c]pyridine-2-carboxamide)] showed an IC50 of less than 25 nM.
Compound `COC(=O)CN1CCc2nc(C(=O)N3CCc4c(-c5cccc6c5CCN6C(=O)c5nc6c(s5)CN(CC(=O)OC)CC6)cccc43)sc2C1` [Example 102, dimethyl 2,2′-(([4,4′-biindoline]-1,1′-dicarbonyl)bis(6,7-dihydrothiazolo[5,4-c]pyridine-2,5(4H)-diyl))diacetate] has an IC50 of less than 25 nM.
For `Cc1c(NC(=O)c2nc3c(s2)CN(CC#N)CC3)cccc1-c1cccc(NC(=O)c2nc3c(s2)CN(CC#N)CC3)c1C` [Example 80, N,N′-(2,2′-dimethyl-[1,1′-biphenyl]-3,3′-diyl)bis(5-(cyanomethyl)-4,5,6,7-tetrahydrothiazolo[5,4-c]pyridine-2-carboxamide)], the IC50 was less than 25 nM.
For `COP(=O)(CCN1CCc2nc(C(=O)N3CCc4c(-c5cccc6c5CCN6C(=O)c5nc6c(s5)CN(CCP(=O)(OC)OC)CC6)cccc43)sc2C1)OC` [Example 124, dimethyl (2-(2-(1′-(5-(2-(dimethoxyphosphoryl)ethyl)-4,5,6,7-tetrahydrothiazolo[5,4-c]pyridine-2-carbonyl)-[4,4′-biindoline]-1-carbonyl)-6,7-dihydrothiazolo[5,4-c]pyridin-5(4H)-yl)ethyl)phosphonate], the IC50 was less than 25 nM.
`Cc1c(Nc2nccc3cc(CNCCO)cnc23)cccc1-c1cccc2c1CCN2C(=O)C1=NC2CCN(CCC(=O)O)CC2S1` (stereo not shown) [Example 162, 3-(2-(4-(3-((3-(((2-hydroxyethyl)amino)methyl)-1,7-naphthyridin-8-yl)amino)-2-methylphenyl)indoline-1-carbonyl)-3a,6,7,7a-tetrahydrothiazolo[5,4-c]pyridin-5(4H)-yl)propanoic acid] gave an IC50 of less than 25 nM.
`Cc1c(Nc2nccc3cc(CNCC(=O)O)cnc23)cccc1-c1cccc(Nc2nccc3cc(CN4CC[C@H](N(C)C)C4)cnc23)c1C` [Example 154, (S)-((8-((3′-((3-((3-(dimethylamino)pyrrolidin-1-yl)methyl)-1,7-naphthyridin-8-yl)amino)-2,2′-dimethyl-[1,1′-biphenyl]-3-yl)amino)-1,7-naphthyridin-3-yl)methyl)glycine] was tested, and the IC50 was less than 25 nM.
`Cc1c(NC(=O)c2nc3c(n2C)CNCC3)cccc1-c1cccc(NC(=O)c2nc3c(n2C)CNCC3)c1C` [Example 64, N,N′-(2,2′-dimethylbiphenyl-3,3′-diyl)bis(3-methyl-4,5,6,7-tetrahydro-3H-imidazo[4,5-c]pyridine-2-carboxamide)] gave an IC50 of less than 25 nM.
“2-((3′-(6,6-dimethyl-5,6,7,8-tetrahydro-614-1,6-naphthyridin-7-ylium-2-carboxamido)-2,2′-dimethyl-[1,1′-biphenyl]-3-yl)carbamoyl)-6,6-dimethyl-5,6,7,8-tetrahydro-1,6-naphthyridin-6-ium chloride [Example 171]” was tested, and the IC50 was less than 25 nM.
In the case of `O=C(O)CN1CCc2nc(C(=O)Nc3cccc(-c4cccc(NC(=O)c5nc6c(s5)CN(CC(=O)O)CC6)c4Cl)c3Cl)sc2C1` [Example 65, 2,2′-((((2,2′-dichloro-[1,1′-biphenyl]-3,3′-diyl)bis(azanediyl))bis(carbonyl))bis(6,7-dihydrothiazolo[5,4-c]pyridine-2,5(4H)-diyl))diacetic acid], the IC50 is reported as less than 25 nM.
`Cc1c(Nc2nccc3cc(CNCC(=O)N(C)C)cnc23)cccc1-c1cccc2c1CCN2C(=O)C1=NC2CCN(CC(=O)O)CC2S1` (stereo not shown) [Example 165, 2-(2-(4-(3-((3-(((2-(dimethylamino)-2-oxoethyl)amino)methyl)-1,7-naphthyridin-8-yl)amino)-2-methylphenyl)indoline-1-carbonyl)-3a,6,7,7a-tetrahydrothiazolo[5,4-c]pyridin-5(4H)-yl)acetic acid] showed an IC50 of less than 25 nM.
`Cc1c(NC(=O)c2nc3c(s2)CNCC3)cccc1-c1cccc(NC(=O)c2nc3ccc(N)cc3s2)c1C` [Example 11, N-(3′-(6-aminobenzo[d]thiazole-2-carboxamido)-2,2′-dimethyl-[1,1′-biphenyl]-3-yl)-4,5,6,7-tetrahydrothiazolo[5,4-c]pyridine-2-carboxamide] showed an IC50 of 100 to 200 nM.
Work on `Cc1c(NC(=O)c2cnc(C(C)NCCO)cn2)cccc1-c1cccc(NC(=O)c2cnc(C(C)NCCO)cn2)c1C` (stereo not shown) [Example 181, N,N′-(2,2′-dimethyl-[1,1′-biphenyl]-3,3′-diyl)bis(5-(1-((2-hydroxyethyl)amino)ethyl)pyrazine-2-carboxamide)] yielded an IC50 of less than 25 nM.
Work on `Cc1nc(C(=O)Nc2cccc(-c3cccc4c3CCN4C(=O)c3nc(C)c(CN4CCCC[C@H]4C(=O)O)s3)c2C)sc1CN1CCCC[C@H]1C(=O)O` [Example 58, (S)-1-((2-(3-(1-(5-(((S)-2-carboxypiperidin-1-yl)methyl)-4-methylthiazole-2-carbonyl)indolin-4-yl)-2-methylphenylcarbamoyl)-4-methylthiazol-5-yl)methyl)piperidine-2-carboxylic acid] yielded an IC50 of less than 25 nM.
